Literature values in patent US20220378840A1, “COMPOSITIONS, KITS AND METHODS FOR STORAGE OF BLOOD PRODUCTS AND METHODS OF USE THEREOF” (Rutgers, The State University of New Jersey, priority 2019, published 2022).

Columns and labels:
RBCs [1] = conditions: prolonged incubation in 3% L-carnitine
RBCs [2] = conditions: 6% concentration L-carnitine
cells = conditions: 6% concentration HES
hemorrhagic shock = conditions: 6% concentration HES

Molecule	toxicity on prolonged incubation (RBCs [1])	recovery of RBCs (RBCs [2])	cell survival during freezing and thawing (cells)	oxidative stress and inflammatory response in hemorrhagic shock (hemorrhagic shock)
C[N+](C)(C)C[C@H](O)CC(=O)[O-] [L-carnitine]	non-toxic	80%	–	–
Hydroxyethyl starch [HES]	–	–	improves cell survival	reduces oxidative stress and inflammatory response
